Experimental data as given in ChEMBL document CHEMBL1130570, “Cyclic saligenyl phosphotriesters of 2,3-dideoxy-2,3-didehydrothymidine (d4T) a new pro-nucleotide approach” (Bioorg Med Chem Lett, 1997).
Values after ≈ are worked out from the molar mass of the structure shown.

How the values were obtained:
[1] = Partition coefficient in 1-octanol / phosphate buffer at pH 6.8; type: physicochemical; conditions: octanol/water
CCRF-CEM [2] = test: Effective concentration that causes 50 % inhibition of HIV-2 in CEM/TK- cells, was determined.; type: functional, cell-based; conditions: Homo sapiens
CCRF-CEM [3] = test: Effective concentration that causes 50 % inhibition of HIV-1 in CEM/0 cells, was determined.; type: functional, cell-based; conditions: Homo sapiens
CCRF-CEM [4] = test: Effective concentration that causes 50 % inhibition of HIV-2 in CEM/0 cells, was determined.; type: functional, cell-based; conditions: Homo sapiens

| Structure (SMILES) | PC [1] | EC50 (CCRF-CEM [2]) [µg/mL] | EC50 (CCRF-CEM [3]) [µg/mL] | EC50 (CCRF-CEM [4]) [µg/mL] |
| --- | --- | --- | --- | --- |
| Cc1cn([C@H]2C=C[C@@H](COP3(=O)OCc4cc([N+](=O)[O-])ccc4O3)O2)c(=O)[nH]c1=O (some centres undefined) | 1.5 | 40 (≈ 91.5 µM) | 0.29 (≈ 0.663 µM) | 0.4 (≈ 0.915 µM) |
| Cc1ccc2c(c1)COP(=O)(OC[C@@H]1C=C[C@H](n3cc(C)c(=O)[nH]c3=O)O1)O2 (some centres undefined) | 5.4 | – | – | – |
| Cc1cn([C@H]2C=C[C@@H](COP3(=O)OCc4cc(Cl)ccc4O3)O2)c(=O)[nH]c1=O (some centres undefined) | 7.7 | 20 (≈ 46.9 µM) | 0.18 (≈ 0.422 µM) | 0.25 (≈ 0.586 µM) |
| Cc1cn([C@H]2C=C[C@@H](CO)O2)c(=O)[nH]c1=O [STAVUDINE] | 0.15 | 45 (≈ 201 µM) | 0.4 (≈ 1.78 µM) | 1.45 (≈ 6.47 µM) |
| Cc1cn([C@H]2C=C[C@@H](COP3(=O)OCc4ccccc4O3)O2)c(=O)[nH]c1=O (some centres undefined) | 1.9 | – | – | – |
